# Tests used:
# [1] = tested on: immunoadhesin-expressing CHO cells; test: Fed-batch shake flask culture of immunoadhesin-expressing CHO cells: N-glycan (HILIC-UPLC) and ProG titer; format: cell-based, Chinese hamster; settings: for Titer: Day 14 harvest; for % afucose / % charged / % galactosylation: fed-batch shake flask; for % afucose levels: addition to fed-batch shake flask cultures
# Description: FIG. 3A and FIG. 3B. Effect of hypoxanthine and guanine on the growth (FIG. 3A) and viability (FIG. 3B) of fed-batch shake flask cultures of immunoadhesin-expressing CHO cells. Copper (II) sulfate was delivered as part of the 5×-concentrated DMEM/F12 feed media at a concentration of 1 mM in the feed media. The Day 14 final concentration of CuSO4 in the culture was 0.2 mM due to 20% feeding. Hypoxanthine was delivered as a 1 mM bolus from a 200 mM stock solution on Day 6 after the temperature shift. Guanine was delivered as a 0.2 mM bolus from a 100 mM stock solution on Day 6 after the temperature shift.
# FIG. 4A and FIG. 4B. Effect of copper (II) sulfate on the growth (FIG. 4A) and viability (FIG. 4B) of fed-batch shake flask cultures of immunoadhesin-expressing CHO cells. Copper (II) sulfate was delivered as part of the 5×-concentrated DMEM/F12 feed media at a concentration of 1 mM in the feed media. The Day 14 final concentration of CuSO4 in the culture was 0.2 mM, due to 20% feeding. Alternatively, copper (II) sulfate was delivered as 0.2 mM and 0.5 mM boli on Day 6 from a stock solution.
# Cell culture methods: Cells were thawed and maintained as in a previous report (Kshirsagar, et al. 2012 Biotechnol Bioeng, Huang, et al. Biotechnology Progress 26(5):1400-1410 (2010)). Basal medium for thaw and passing was the same as in previous reports (Kshirsagar/Huang). Briefly, cells were thawed and maintained in 3 L shake flasks (Corning Life Sciences, Corning, N.Y.) with 1 L working volumes and were passaged every 2-3 days. For maintenance cultures the incubator was controlled at 37° C. and 5% CO2. […]
# (§1) Copper (II) sulfate, hypoxanthine, guanine, glucosamine, and galactose were delivered to two different immunoadhesin-expressing CHO cell cultures either as part of the feed media or as boli from distinct stock solutions. The typical culture process is a 14-day process that consists of a growth phase from Day 0 to Day 6 at 37° C. and a protein production phase from Day 6 to Day 14 at 30° C.
# [2] = tested on: immunoadhesin-expressing CHO cells; test: 3 L fed-batch bioreactor culture of immunoadhesin-expressing CHO cells: N-glycan (HILIC-UPLC), TSA and ProG titer; format: cell-based, Chinese hamster
# Description: FIG. 5A and FIG. 5B. […] Copper (II) sulfate was delivered as part of the 5×-concentrated DMEM/F12 feed media at a concentration of 1 mM in the feed media. The Day 14 final concentration of CuSO4 in the culture was 0.25 mM, due to 25% feeding. In the CuSO4, glucosamine, and galactose combination conditions, copper (II) sulfate was delivered as part of the 5×-concentrated DMEM/F12 feed media at a concentration of 1 mM in the feed media. The Day 14 final concentration of CuSO4 in the culture was 0.22 mM, due to 22% feeding. Glucosamine was delivered as two 10 mM boli, each on Day 6 and Day 8. Galactose was delivered as part of the 5×-concentrated DMEM/F12 feed media from Day 6-14 at a concentration of 20 g/L in the feed. The Day 14 final concentration of galactose was 2.4 g/L, due to 12% feeding from Day 6-14. In the CuSO4 and hypoxanthine condition, copper (II) sulfate and hypoxanthine were delivered as part of the 5×-concentrated DMEM/F12 feed media at a concentration of 1 mM and 3 mM, respectively, in the feed media. The Day 14 final concentrations of CuSO4 and hypoxanthine in the culture were 0.23 mM and 0.7 mM, due to 23% feeding.
# Bioreactor culture conditions: Fed batch cultures were performed in 5 L glass Applikon vessels using Finesse TruBio DV controllers (Finesse Solutions, San Jose, Calif.) with an initial working volume between 2-2.5 L. Bioreactors were seeded at constant seed density of 4×10^5 cells/ml. Concentrated feed medium was delivered on days 3, 5, and every day or every other day following through harvest. Temperature was maintained at 35° C. or 36° C. and pH was controlled at 7.1+/−0.2 by the addition of either 1 M sodium carbonate or carbon dioxide. Dissolved oxygen was maintained at 30%-40% by air and oxygen sparge using a drilled hole sparger. Agitation was maintained between 200-400 RPM throughout the culture to limit total gas flow, while an overlay was maintained between 0.005 and 0.04 vvm.
# (§2) Offline analysis: Samples were taken on most days and analyzed with a variety of equipment. Cell density and viability were measured using the standard technique of trypan blue exclusion using a Cedex (Roche Innovatis AG, Germany). Cell viability and growth rate of the various cultures were measured during the culture time course at specific days post-inoculation.
# as §1
# [3] = tested on: CHO-043 cells; test: CHO-043 fed-batch shake flask culture: N-glycan (HILIC-UPLC), sialylation and ProG titer of the expressed immunoadhesin; format: cell-based, Chinese hamster
# Description: FIG. 1A and FIG. 1B. Effect of glucosamine and galactose on the growth (FIG. 1A) and viability (FIG. 1B) of fed-batch shake flask cultures. Glucosamine was delivered as two 10 mM boli, each on Day 2 and Day 4 in both the glucosamine alone condition and the glucosamine/galactose combination condition. […] The Day 14 final concentration of galactose was 6 g/L, due to 30% feeding. Cell line: The cell line used in this study produced a growth factor receptor immunoadhesin polypeptide. The cell line was constructed using DG44 adapted to grow in serum-free medium (Prentice, 2007). The cell line DUXB11 was also used in this study. Cell culture methods: Cells were thawed and maintained as in a previous report ([…] al. 2012 Biotechnol Bioeng, Huang, et al. Biotechnology Progress 26(5):1400-1410 (2010)). Basal medium for thaw and passing was the same as in previous reports ([…]). Briefly, cells were thawed and maintained in 3 L shake flasks (Corning Life Sciences, Corning, N.Y.) with 1 L working volumes and were passaged every 2-3 days. For maintenance cultures the incubator was controlled at 37° C. and 5% CO2. Offline analysis: Samples were taken on most days and analyzed with a variety of equipment. Cell density and viability were measured using the standard technique of trypan blue exclusion using a Cedex (Roche Innovatis AG, Germany). Cell viability and growth rate of the various cultures were measured during the culture time course at specific days post-inoculation. […] The typical culture process is a 14-day process that consists of a growth phase from Day 0 to Day 6 at 37° C. and a protein production phase from Day 6 to Day 14 at 30° C. [table]
# [4] = tested on: CHO-602; test: CHO-602 fed-batch shake flask culture: N-glycan (HILIC-UPLC), sialylation and ProG titer; format: cell-based, Chinese hamster; settings: for % NGNA / % afucose / TSA (mol/chain): Day 12, GlcN 10 mM bolus D6, combination: plus galactose 20 g/L in feed (4 g/L final)
# Description: FIG. 2A and FIG. 2B. Effect of glucosamine and galactose on the growth (FIG. 2A) and viability (FIG. 2B) of fed-batch shake flask cultures of immunoadhesin-expressing CHO cells. Glucosamine was delivered as 10 mM boli on Day 6 for the 10 mM conditions and again on Day 8 for the 20 mM condition. In the glucosamine and galactose combination conditions, galactose was delivered as part of the 5×-concentrated DMEM/F12 feed media at a concentration of 20 g/L in the feed. The Day 14 final concentration of galactose was 4 g/L, due to 20% feeding.
# FIG. 6A and FIG. 6B. Effect of copper (II) sulfate and Hypoxanthine-Thymidine (HT) supplement on the growth (FIG. 6A) and viability (FIG. 6B) of immunoadhesin-expressing CHO cells in fed-batch shake flasks. […] Copper (II) sulfate, hypoxanthine, and thymidine were delivered as part of the 5×-concentrated DMEM/F12 feed media at a concentration of 1 mM, 1 mM, and 0.16 mM respectively in the feed media for the HT Low condition and 1 mM, 3 mM, and 0.5 mM respectively in the feed media for the HT High condition. The Day 14 final concentration of CuSO4, hypoxanthine, and thymidine in the culture was 0.30 mM, 0.30 mM, and 0.05 mM respectively for the HT Low condition and 0.30 mM, 1 mM, and 0.16 mM respectively for the HT High condition due to 30% feeding.
# Cell culture methods: Cells were thawed and maintained as in a previous report (Kshirsagar, et al. 2012 Biotechnol Bioeng, Huang, et al. Biotechnology Progress 26(5):1400-1410 (2010)). Basal medium for thaw and passing was the same as in previous reports (Kshirsagar/Huang). Briefly, cells were thawed and maintained in 3 L shake flasks (Corning Life Sciences, Corning, N.Y.) with 1 L working volumes and were passaged every 2-3 days. For maintenance cultures the incubator was controlled at 37° C. and 5% CO2.
# as §2, §1
# [5] = tested on: FcγRIIIa; test: % FcγRIIIa binding of purified product relative to Enbrel innovator material; settings: for % FcγRIIIa: Day 14 product, ProA and HIC purified, relative to Enbrel innovator material, hypoxanthine 1 mM or guanine 0.2 mM bolus D6; for levels of FcγRIIIa binding: addition to fed-batch shake flask cultures
# [6] = feed supp. w/1 mM CuSO4 (0.2 mM final Day 14), Day 12
# [7] = Day 14, CuSO4 1 mM in feed (0.25 mM final; 0.22 mM in combination), GlcN two 10 mM boli D6, D8, galactose 2.4 g/L final
# [8] = Day 12, GlcN two 10 mM boli D2, D4, combination: plus galactose 20 g/L in feed (6 g/L final)
# [9] = Day 12, GlcN two 10 mM boli D2, D4, combination: plus galactose 20 g/L in feed (6 g/L final), listed as glucosamine
# [10] = ExptA, ProG, hypoxanthine 1 mM or guanine 0.2 mM bolus D6
# [11] = ExptA, Day 14, hypoxanthine 1 mM or guanine 0.2 mM bolus D6
# [12] = ExptB, ProG, hypoxanthine 1 mM or guanine 0.2 mM bolus D6
# [13] = ExptB, Day 14, hypoxanthine 1 mM or guanine 0.2 mM bolus D6
smiles,measurement,setting,value
"O=S(=O)([O-])[O-].[Cu+2] [CuSO4, copper (II) sulfate]",Titer,[1]; 0.2 mM CuSO4 D6 bolus,1.9 g/L
same,% afucose,"[1]; 0.2 mM CuSO4 D6 bolus, Day 12",8.2%
same,% charged,"[1]; 0.2 mM CuSO4 D6 bolus, Day 12",42.1%
same,% galactosylation,"[1]; 0.2 mM CuSO4 D6 bolus, Day 12",70.3%
same,Titer,[1]; 0.5 mM CuSO4 D6 bolus,1.9 g/L
same,% afucose,"[1]; 0.5 mM CuSO4 D6 bolus, Day 12",8.2%
same,% charged,"[1]; 0.5 mM CuSO4 D6 bolus, Day 12",42.4%
same,% galactosylation,"[1]; 0.5 mM CuSO4 D6 bolus, Day 12",68.5%
same,"% afucose, % galactosylation, and % charged levels of N-linked glycosylation","[1]; copper (II) sulfate alone, shake flask",toward values associated with a comparator polypeptide
same,Titer,[1]; feed supp. w/1 mM CuSO4 (0.2 mM final Day 14),1.8 g/L
same,% afucose,[1]; [6],8.4%
same,% charged,[1]; [6],43.7%
same,% galactosylation,[1]; [6],62.7%
same,% NGNA,[2]; [7],0.7%
same,% afucose,[2]; [7],7.1%
same,% charged,[2]; [7],41.9%
same,% galact.,[2]; [7],65.4%
same,% α-gal,[2]; [7],0.4%
same,TSA (mol/chain),[2]; [7],13.5 mol/chain
same,Titer,"[2]; Day 14 harvest, CuSO4 1 mM in feed, combination with GlcN two 10 mM boli and galactose 2.4 g/L final",2.0 g/L
"N[C@H]1C(O)O[C@H](CO)[C@@H](O)[C@@H]1O (some centres unmarked) [GlcN, glucosamine]",% NGNA,[3]; [8],3.8%
same,% afucose,[3]; [8],1.7%
same,% α-gal,[3]; [8],2.4%
same,TSA (mol/chain),[3]; [8],6.6 mol/chain
same,% α-gal,[3]; [9],reduced
same,TSA (mol/chain),[3]; [9],6 mol/chain
same,Titer,"[3]; Day 12 harvest, ProG, GlcN two 10 mM boli D2, D4, combination: plus galactose (6 g/L final)",1.8 g/L
same,% NGNA,[4],1.3%
same,% afucose,[4],8.9%
same,TSA (mol/chain),[4],11.1 mol/chain
same,% NGNA,[4]; listed as glucosamine,little effect
same,% afucose,[4]; listed as glucosamine,little effect
same,TSA (mol/chain),[4]; listed as glucosamine,reduce sialylation
same,Titer,"[4]; Day 14 harvest, ProG, GlcN 10 mM bolus D6, combination: plus galactose (4 g/L final)",1.4 g/L
"Nc1nc2nc[nH]c2c(=O)[nH]1 [Guanine, guanine]",Titer,[1]; [10],1.5 g/L
same,% afucose,[1]; [11],10.5%
same,Titer,[1]; [12],1.6 g/L
same,% afucose,[1]; [13],10.2%
same,% afucose levels,[1],no change
same,% FcγRIIIa,[5]; ExptA,92%
same,% FcγRIIIa,[5]; ExptB,121%
same,levels of FcγRIIIa binding,[5],within the range of a comparator polypeptide
"O=c1[nH]cnc2nc[nH]c12 [Hypoxanthine, hypoxanthine]",Titer,[1]; [10],1.7 g/L
same,% afucose,[1]; [11],9.5%
same,Titer,[1]; [12],1.6 g/L
same,% afucose,[1]; [13],8.3%
same,% afucose levels,[1],no change
same,% FcγRIIIa,[5]; ExptA,85%
same,% FcγRIIIa,[5]; ExptB,122%
same,levels of FcγRIIIa binding,[5],within the range of a comparator polypeptide

# From patent US9944968B2, “Control of protein glycosylation by culture medium supplementation and cell culture process parameters” (Biogen MA Inc., priority 2013, dated 2018)
